Experimental data as given in patent US12516085B2, “Methods and compositions for treating Myc-driven cancers” (Sanford Burnham Prebys Medical Discovery Institute, priority 2019, dated 2026).
Entries after “also recorded” stand apart in the source; their conditions may differ.

What was measured:
Type in all cases: cell-based
MSTO-211H-HNB^i = test: Proliferation after Doxycycline-induced HNB expression, MSTO-211H-HNB^i; conditions: following Doxycycline treatment
Description: (§1) In addition, an inducible lentiviral system was developed, in which the transgene could be expressed under a Doxycycline inducible promoter. The system was verified by inserting eGFP as the transgene and by flow analysis of GFP^+ cells in absence and presence of doxycycline as shown in FIG. 8. […] The same system was used to clone HNB under the regulation of a Doxycycline inducible promoter and generate the cell lines MSTO-211H-HNB^i and U2OS-HNB^i. […] Western blot analysis was performed of Myc protein in Hi-Myc cell line MSTO-211H-HNB^i.

[1] = test system: Hi- and Lo-Myc cell lines; test: Proliferation of Hi- and Lo-Myc cell lines transfected with lentiviral vectors expressing GFP, HNB or HNB(ATG>TGA); conditions: 8 Hi- and Lo-Myc cell lines; lentiviral overexpression
From the text: To determine the function of the HNB, the Hi- and Lo-Myc cell lines were transfected with lentiviral vectors expressing GFP, HNB or HNB where the start site has been mutated (HNB(ATG>TGA)).

Myc protein = test: Western blot of Myc protein after Doxycycline-induced HNB expression in MSTO-211H-HNB^i; conditions: Hi-Myc cell line MSTO-211H-HNB^i; following Doxycycline induction
Description: as §1

U2OS-HNB^i = test: Proliferation after Doxycycline-induced HNB expression, U2OS-HNB^i; conditions: following Doxycycline treatment
Description: as §1

How did the proliferation rate (MSTO-211H-HNB^i) turn out when “HNB: 14 amino acid micro-peptide MKTQLGAVKGFLHV (SEQ ID NO: 1) coded by shORF at Exon 3-4 junction of PVT1ts; expressed from lentiviral vectors” was run?
The proliferation rate was “significant reduction in their proliferation rates”.

And the proliferation [1]?
The proliferation was “failed to proliferate”.

And the “Myc protein expression (western blot, relative to β-Actin)” value (Myc protein)?
The value was “decreased; also recorded: reduced MYC protein”.

What about the proliferation rate (U2OS-HNB^i) of the same substance?
The proliferation rate was “significant reduction in their proliferation rates”.
